Test results taken from PMC12257394, “Design, Synthesis, and Biological Evaluation of Ferrocenyl–Cyclo-(Gly‑L‑Pro) Hybrids Sensitizing Multidrug-Resistant Cancer Cells to Anticancer Agents” (ACS Medicinal Chemistry Letters, 2025).

Legend:
Type in all cases: cell-based, human
[1] = Neutral red uptake viability assay, SW620C; conditions: human, SW620C cells (cisplatin-resistant); SW620C, 72 h, n = 3; read-out: Cytotoxic activity IC50 (95% CI)
Description: The normal lung fibroblast MRC-5 and colorectal adenocarcinoma SW620 cell lines used in this experiment were purchased from American Type Culture Collection (USA) via LGC […]
described previously.10, 11 All cells were cultured under standard conditions (37°C, 5% CO2, 100% humidity) in high-glucose DMEM supplemented with GlutaMaxTM, HEPES (ThermoFisher Scientific, USA), and 10% fetal bovine serum (EURx, Poland). Cells were routinely tested for potential Mycoplasma contamination using the MycoProbe Mycoplasma Detection kit (R&D System, USA).
In total, 104 cells in 100 µL of complete medium were plated per well of a 96-well plate and left overnight to allow cells to adhere to the surface. Then, the cells were exposed to a desired concentration of tested compound(s). Stock solutions were prepared in DMSO and used immediately. The final DMSO concentration was constant and nontoxic (0.1% v/v). After 70-h incubation, neutral red was added to the final concentration of 1 mM. After another 2 h, the medium was aspirated, and cells were washed twice with PBS. Dye was released using 100 µL of a solubilizer (1% acetic acid in 50% ethanol) on an orbital shaker (10 min). Absorbance was read at 540 nm using EnVision Multilabel Plate Reader (Perkin Elmer, USA). Results were expressed as % of control. The IC50 parameters were calculated using GraphPad Prism version 10 (GraphPad Software, Boston, Massachusetts USA). […]
IC₅₀ values were determined in […]
All experiments were performed in triplicate (n = 3).

[2] = Neutral red uptake viability assay, SW620D; conditions: human, SW620D cells (doxorubicin-resistant), 72 h, n = 3, read-out: Cytotoxic activity IC50 (95% CI)
[3] = Neutral red uptake viability assay, SW620M; conditions: human, SW620M cells (methotrexate-resistant), 72 h, n = 3, read-out: Cytotoxic activity IC50 (95% CI)
[4] = Neutral red uptake viability assay, SW620V; conditions: human, SW620V cells (vincristine-resistant), 72 h, n = 3, read-out: Cytotoxic activity IC50 (95% CI)
[5] = Neutral red uptake viability assay, SW620Mito; conditions: human, SW620Mito cells (mitoxantrone-resistant), 72 h, n = 3, read-out: Cytotoxic activity IC50 (95% CI)

Measured: IC50 at 72 h

O=C1N/C(=C/c2ccccc2)C(=O)N2CCC[C@@H]12 [(S,E)-4e]
> 100 µM: all assays above

O=C1N/C(=C\c2ccccc2)C(=O)N2CCC[C@@H]12 [(S,Z)-4e]
> 100 µM: all assays above
